{"source": "paper PMC8909834", "about": "“An Orally Bioavailable and Highly Efficacious Inhibitor of CDK9/FLT3 for the Treatment of Acute Myeloid Leukemia” (Cancers, 2022)", "assay_in_all_cases": "Kinase Hotspot radiolabel assay", "format_in_all_cases": "biochemical", "conditions_in_all_cases": "read-out: % Residual Activity", "key": {"RAF1": {"target": "T1, RAF1 (Homo sapiens, UniProt P04049)", "T1 construct": "purchased Reaction Biology Corporation (Kinase HotSpot)", "description": "(§1) Kinase assay. The ADP Glo^TM kinase assay (Promega, Madison, WI, USA) was used to assess the inhibition by CDDD11-8 of CDKs 1, 2, 4, 6, 7, and 9, as well as the mutant isoforms of FLT3. The assays were performed in accord with the manufacturer’s protocol (Promega) as described previously. Briefly, serial three-fold dilutions of CDDD11-8 were prepared in 100% DMSO from a 2 mM stock solution, followed by 1:40 dilution into Milli-Q water. Subsequently, 1 µL of each sample was incubated with 4 µL of kinase mixture containing a particular CDK enzyme and its substrate, standard kinase buffer [3 mM MgCl2, 50 mM HEPES-NaOH pH 7.5, 3 mM MnCl2, 3 µM Na-orthovanadate, 1 mM dithiothreitol (DTT)], kinase dilution buffer (containing 0.25 mg/mL PEG20,000, 50 mM HEPES-NaOH pH 7.5, 1 mM DTT), and ATP at 37 °C for 30 to 40 min. The final reaction mixture contained 0.5% DMSO in all samples, and the applied kinase concentrations were 1, 1, 10, 40, 20, and 50 nM for CDK1, 2, 4, 6, 7, and 9, respectively. The reaction was stopped by adding ADP-Glo reagent and the mixture was incubated further in the dark at room temperature for 40 min. As a final step, kinase detection reagent was added to each mixture and incubated at room temperature for 30 to 60 min. Luminescence was read using an EnVision® multilabel plate reader (PerkinElmer, Beaconsfield, UK), and half-maximum inhibitory concentrations (IC50) were calculated using a non-linear regression model with a variable slope, plotting log (inhibitor concentration) vs. response using the following formula: Ar%=Bottom+Top−Bottom/1+Inhibitor Concentration/IC50^HillSlope where the relative activity Ar (%) is the signal relative to the controls, IC50 is the half maximum concentration, Hillslope is the steepness of the dose-response curve, Top and Bottom are plateaus reflecting the maximum and minimum in responses on the Y-axis (GraphPad Prism version 7, San Diego, CA, USA). Ki values were calculated from the IC50 using the Cheng−Prusoff equation [32]. Extensive specificity assessment was carried out by Reaction Biology Corporation (Malvern, PA, USA) with 369 kinases using 1 µM CDDD11-8 concentration in a Kinase Hotspot radiolabel assay (for experimental details, please see (Reaction Biology https://www.reactionbiology.com/). Subsequently, Ki values were determined for kinases with greater than 90% inhibition."}, "CK1a1L": {"target": "T2, CK1a1L (Homo sapiens, UniProt Q8N752)", "T2 construct": "purchased Reaction Biology Corporation (Kinase HotSpot)", "description": "as §1"}, "PKCtheta": {"target": "T3, PKCtheta (Homo sapiens, UniProt Q04759)", "T3 construct": "purchased Reaction Biology Corporation (Kinase HotSpot)", "description": "as §1"}, "PKD2/PRKD2": {"target": "T4, PKD2/PRKD2 (Homo sapiens, UniProt Q9BZL6)", "T4 construct": "purchased Reaction Biology Corporation (Kinase HotSpot)", "description": "as §1"}, "NEK9": {"target": "T5, NEK9 (Homo sapiens, UniProt Q8TD19)", "T5 construct": "purchased Reaction Biology Corporation (Kinase HotSpot)", "T5 sequence (Q8TD19 whole entry)": "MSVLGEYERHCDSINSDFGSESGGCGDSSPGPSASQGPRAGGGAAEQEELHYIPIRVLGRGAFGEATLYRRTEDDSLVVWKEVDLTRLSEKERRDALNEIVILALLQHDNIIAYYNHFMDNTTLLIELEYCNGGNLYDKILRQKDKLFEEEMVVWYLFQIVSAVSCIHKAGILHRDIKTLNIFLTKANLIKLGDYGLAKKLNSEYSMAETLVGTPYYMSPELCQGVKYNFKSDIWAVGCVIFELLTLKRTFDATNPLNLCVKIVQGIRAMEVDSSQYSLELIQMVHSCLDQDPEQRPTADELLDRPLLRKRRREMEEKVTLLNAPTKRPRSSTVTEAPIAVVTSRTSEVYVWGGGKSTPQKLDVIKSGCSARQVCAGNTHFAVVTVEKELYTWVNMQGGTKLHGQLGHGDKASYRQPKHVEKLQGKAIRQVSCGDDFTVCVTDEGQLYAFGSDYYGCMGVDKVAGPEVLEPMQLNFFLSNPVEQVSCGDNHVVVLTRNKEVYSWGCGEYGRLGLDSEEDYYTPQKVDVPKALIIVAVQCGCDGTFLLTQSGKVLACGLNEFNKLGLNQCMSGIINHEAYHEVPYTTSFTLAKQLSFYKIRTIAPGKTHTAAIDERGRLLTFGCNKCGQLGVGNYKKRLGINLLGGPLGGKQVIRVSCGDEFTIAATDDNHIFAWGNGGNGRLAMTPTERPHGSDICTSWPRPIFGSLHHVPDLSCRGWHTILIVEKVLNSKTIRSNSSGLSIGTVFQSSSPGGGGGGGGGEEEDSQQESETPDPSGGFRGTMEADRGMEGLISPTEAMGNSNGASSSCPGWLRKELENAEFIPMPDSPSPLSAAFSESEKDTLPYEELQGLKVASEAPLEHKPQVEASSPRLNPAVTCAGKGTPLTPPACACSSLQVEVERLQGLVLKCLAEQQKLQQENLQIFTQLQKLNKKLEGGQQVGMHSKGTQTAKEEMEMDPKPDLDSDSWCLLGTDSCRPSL", "description": "as §1"}, "EPHA5": {"target": "T6, EPHA5 (Homo sapiens, UniProt P54756)", "T6 construct": "purchased Reaction Biology Corporation (Kinase HotSpot)", "T6 sequence (P54756 25-1037)": "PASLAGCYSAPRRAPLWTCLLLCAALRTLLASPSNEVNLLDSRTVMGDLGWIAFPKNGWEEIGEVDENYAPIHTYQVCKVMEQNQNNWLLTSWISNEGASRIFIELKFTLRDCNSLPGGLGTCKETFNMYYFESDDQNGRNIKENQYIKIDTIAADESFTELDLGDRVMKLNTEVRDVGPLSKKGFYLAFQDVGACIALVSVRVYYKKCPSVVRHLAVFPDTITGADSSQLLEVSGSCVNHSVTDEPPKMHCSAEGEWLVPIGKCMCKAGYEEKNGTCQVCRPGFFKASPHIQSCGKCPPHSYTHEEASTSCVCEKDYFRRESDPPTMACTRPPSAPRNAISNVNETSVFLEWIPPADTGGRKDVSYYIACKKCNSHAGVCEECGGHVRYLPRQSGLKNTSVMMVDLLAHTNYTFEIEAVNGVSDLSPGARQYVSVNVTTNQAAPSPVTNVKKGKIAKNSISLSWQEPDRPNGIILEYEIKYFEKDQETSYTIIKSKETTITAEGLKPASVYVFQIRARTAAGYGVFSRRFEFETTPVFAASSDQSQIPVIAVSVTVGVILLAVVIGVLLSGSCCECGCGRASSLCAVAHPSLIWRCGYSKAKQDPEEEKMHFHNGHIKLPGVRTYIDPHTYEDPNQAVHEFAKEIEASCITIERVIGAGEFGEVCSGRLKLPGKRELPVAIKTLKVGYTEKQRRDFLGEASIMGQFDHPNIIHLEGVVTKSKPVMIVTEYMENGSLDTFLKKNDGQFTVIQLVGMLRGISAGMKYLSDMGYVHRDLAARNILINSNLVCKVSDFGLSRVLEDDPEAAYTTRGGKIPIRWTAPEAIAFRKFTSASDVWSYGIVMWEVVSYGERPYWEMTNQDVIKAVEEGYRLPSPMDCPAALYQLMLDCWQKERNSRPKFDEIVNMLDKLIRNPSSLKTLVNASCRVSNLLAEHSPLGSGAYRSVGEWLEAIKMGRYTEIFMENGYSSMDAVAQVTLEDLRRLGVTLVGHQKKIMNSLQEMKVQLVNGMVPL", "description": "as §1"}, "TXK": {"target": "T7, TXK (Homo sapiens, UniProt P42681)", "T7 construct": "purchased Reaction Biology Corporation (Kinase HotSpot)", "description": "as §1"}, "TGFBR2": {"target": "T8, TGFBR2 (Homo sapiens, UniProt P37173)", "T8 construct": "purchased Reaction Biology Corporation (Kinase HotSpot)", "description": "as §1"}, "CDK9/cyclin K": {"target": "T9, CDK9/cyclin K (Homo sapiens, UniProt P50750)", "T9 construct": "purchased Reaction Biology Corporation (Kinase HotSpot)", "T9 sequence (P50750 whole entry)": "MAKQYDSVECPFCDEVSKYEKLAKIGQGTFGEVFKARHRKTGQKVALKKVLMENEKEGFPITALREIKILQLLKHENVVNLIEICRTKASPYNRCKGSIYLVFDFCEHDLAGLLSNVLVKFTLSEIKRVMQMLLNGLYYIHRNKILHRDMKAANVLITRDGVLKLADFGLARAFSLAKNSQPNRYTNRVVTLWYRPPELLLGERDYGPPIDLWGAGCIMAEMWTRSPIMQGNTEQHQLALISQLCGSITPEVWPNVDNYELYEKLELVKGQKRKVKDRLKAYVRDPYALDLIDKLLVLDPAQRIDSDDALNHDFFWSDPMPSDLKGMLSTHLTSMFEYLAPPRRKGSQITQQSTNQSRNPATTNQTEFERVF", "T9 sequence (O75909 whole entry partner)": "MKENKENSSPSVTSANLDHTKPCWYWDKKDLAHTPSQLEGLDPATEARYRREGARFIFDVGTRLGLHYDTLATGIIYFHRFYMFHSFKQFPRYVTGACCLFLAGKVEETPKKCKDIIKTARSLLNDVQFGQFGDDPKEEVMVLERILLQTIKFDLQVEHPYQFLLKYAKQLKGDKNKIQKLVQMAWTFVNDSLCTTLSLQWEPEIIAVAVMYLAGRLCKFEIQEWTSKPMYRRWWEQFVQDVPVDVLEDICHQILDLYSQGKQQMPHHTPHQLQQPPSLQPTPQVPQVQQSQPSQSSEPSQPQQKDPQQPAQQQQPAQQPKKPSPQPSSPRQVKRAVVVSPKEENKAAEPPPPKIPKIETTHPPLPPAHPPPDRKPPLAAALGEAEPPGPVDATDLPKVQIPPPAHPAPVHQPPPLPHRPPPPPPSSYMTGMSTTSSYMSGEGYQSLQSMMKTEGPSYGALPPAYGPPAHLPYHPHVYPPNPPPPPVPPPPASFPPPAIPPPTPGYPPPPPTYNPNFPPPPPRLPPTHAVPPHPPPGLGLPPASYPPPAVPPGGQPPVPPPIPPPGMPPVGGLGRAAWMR", "description": "as §1"}, "HCK": {"target": "T10, HCK (Homo sapiens, UniProt P08631)", "T10 construct": "purchased Reaction Biology Corporation (Kinase HotSpot)", "description": "as §1"}, "FGFR4": {"target": "T11, FGFR4 (Homo sapiens, UniProt P22455)", "T11 construct": "purchased Reaction Biology Corporation (Kinase HotSpot)", "T11 sequence (P22455 22-802)": "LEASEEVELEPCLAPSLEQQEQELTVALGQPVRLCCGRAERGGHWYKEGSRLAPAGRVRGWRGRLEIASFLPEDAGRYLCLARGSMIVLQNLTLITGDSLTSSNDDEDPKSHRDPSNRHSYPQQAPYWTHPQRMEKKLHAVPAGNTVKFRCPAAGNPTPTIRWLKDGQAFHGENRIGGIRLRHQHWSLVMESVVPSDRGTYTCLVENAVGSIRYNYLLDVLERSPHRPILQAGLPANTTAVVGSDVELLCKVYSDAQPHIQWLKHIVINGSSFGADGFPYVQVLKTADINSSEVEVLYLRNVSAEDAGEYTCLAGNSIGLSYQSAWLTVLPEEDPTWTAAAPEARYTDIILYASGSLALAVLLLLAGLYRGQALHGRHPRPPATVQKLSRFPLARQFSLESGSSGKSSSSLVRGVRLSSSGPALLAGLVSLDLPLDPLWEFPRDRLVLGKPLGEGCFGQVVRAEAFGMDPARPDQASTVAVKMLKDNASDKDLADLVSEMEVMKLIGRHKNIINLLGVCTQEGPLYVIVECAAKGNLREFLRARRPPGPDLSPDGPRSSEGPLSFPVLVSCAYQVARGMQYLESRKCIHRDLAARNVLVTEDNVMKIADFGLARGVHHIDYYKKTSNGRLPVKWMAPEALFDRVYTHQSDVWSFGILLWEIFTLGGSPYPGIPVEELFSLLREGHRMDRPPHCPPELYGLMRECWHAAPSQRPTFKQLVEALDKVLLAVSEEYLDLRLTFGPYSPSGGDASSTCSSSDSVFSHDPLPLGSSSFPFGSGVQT", "description": "as §1"}, "FES/FPS": {"target": "T12, FES/FPS (Homo sapiens, UniProt P07332)", "T12 construct": "purchased Reaction Biology Corporation (Kinase HotSpot)", "description": "as §1"}, "MSSK1/STK23": {"target": "T13, MSSK1/STK23 (Homo sapiens, UniProt Q9UPE1)", "T13 construct": "purchased Reaction Biology Corporation (Kinase HotSpot)", "description": "as §1"}, "MYLK3": {"target": "T14, MYLK3 (Homo sapiens, UniProt Q32MK0)", "T14 construct": "purchased Reaction Biology Corporation (Kinase HotSpot)", "description": "as §1"}, "TYK1/LTK": {"target": "T15, TYK1/LTK (Homo sapiens, UniProt P29376)", "T15 construct": "purchased Reaction Biology Corporation (Kinase HotSpot)", "description": "as §1"}, "HIPK3": {"target": "T16, HIPK3 (Homo sapiens, UniProt Q9H422)", "T16 construct": "purchased Reaction Biology Corporation (Kinase HotSpot)", "description": "as §1"}, "IRAK1": {"target": "T17, IRAK1 (Homo sapiens, UniProt P51617)", "T17 construct": "purchased Reaction Biology Corporation (Kinase HotSpot)", "description": "as §1"}, "STK33": {"target": "T18, STK33 (Homo sapiens, UniProt Q9BYT3)", "T18 construct": "purchased Reaction Biology Corporation (Kinase HotSpot)", "description": "as §1"}, "WEE1": {"target": "T19, WEE1 (Homo sapiens, UniProt P30291)", "T19 construct": "purchased Reaction Biology Corporation (Kinase HotSpot)", "T19 sequence (P30291 whole entry)": "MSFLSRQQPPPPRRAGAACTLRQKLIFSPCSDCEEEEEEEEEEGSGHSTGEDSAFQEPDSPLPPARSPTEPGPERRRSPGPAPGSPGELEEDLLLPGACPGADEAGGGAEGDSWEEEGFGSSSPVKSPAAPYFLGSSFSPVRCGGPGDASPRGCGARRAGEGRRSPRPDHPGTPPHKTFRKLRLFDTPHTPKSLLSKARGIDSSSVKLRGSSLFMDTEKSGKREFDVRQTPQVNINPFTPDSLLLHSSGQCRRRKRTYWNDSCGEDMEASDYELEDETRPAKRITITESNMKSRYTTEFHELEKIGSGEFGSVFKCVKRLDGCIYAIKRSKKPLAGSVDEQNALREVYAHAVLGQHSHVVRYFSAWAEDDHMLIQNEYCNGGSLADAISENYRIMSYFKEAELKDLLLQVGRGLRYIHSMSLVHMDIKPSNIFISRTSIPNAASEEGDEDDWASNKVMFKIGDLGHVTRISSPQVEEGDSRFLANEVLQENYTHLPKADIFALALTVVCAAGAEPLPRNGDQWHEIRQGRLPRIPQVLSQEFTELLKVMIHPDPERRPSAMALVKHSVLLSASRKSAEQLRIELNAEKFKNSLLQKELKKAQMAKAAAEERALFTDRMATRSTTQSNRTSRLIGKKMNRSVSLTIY", "description": "as §1"}, "MLCK2/MYLK2": {"target": "T20, MLCK2/MYLK2 (Homo sapiens, UniProt Q9H1R3)", "T20 construct": "purchased Reaction Biology Corporation (Kinase HotSpot)", "description": "as §1"}, "TNIK": {"target": "T21, TNIK (Homo sapiens, UniProt Q9UKE5)", "T21 construct": "purchased Reaction Biology Corporation (Kinase HotSpot)", "description": "as §1"}, "P38b/MAPK11": {"target": "T22, P38b/MAPK11 (Homo sapiens, UniProt Q15759)", "T22 construct": "purchased Reaction Biology Corporation (Kinase HotSpot)", "description": "as §1"}, "MNK1": {"target": "T23, MNK1 (Homo sapiens, UniProt Q9BUB5)", "T23 construct": "purchased Reaction Biology Corporation (Kinase HotSpot)", "description": "as §1"}, "IKKe/IKBKE": {"target": "T24, IKKe/IKBKE (Homo sapiens, UniProt Q14164)", "T24 construct": "purchased Reaction Biology Corporation (Kinase HotSpot)", "description": "as §1"}, "EPHA4": {"target": "T25, EPHA4 (Homo sapiens, UniProt P54764)", "T25 construct": "purchased Reaction Biology Corporation (Kinase HotSpot)", "description": "as §1"}, "YES/YES1": {"target": "T26, YES/YES1 (Homo sapiens, UniProt P07947)", "T26 construct": "purchased Reaction Biology Corporation (Kinase HotSpot)", "description": "as §1"}, "PHKg2": {"target": "T27, PHKg2 (Homo sapiens, UniProt P15735)", "T27 construct": "purchased Reaction Biology Corporation (Kinase HotSpot)", "description": "as §1"}, "CLK2": {"target": "T28, CLK2 (Homo sapiens, UniProt P49760)", "T28 construct": "purchased Reaction Biology Corporation (Kinase HotSpot)", "description": "as §1"}, "GRK1": {"target": "T29, GRK1 (Homo sapiens, UniProt Q15835)", "T29 construct": "purchased Reaction Biology Corporation (Kinase HotSpot)", "T29 sequence (Q15835 whole entry)": "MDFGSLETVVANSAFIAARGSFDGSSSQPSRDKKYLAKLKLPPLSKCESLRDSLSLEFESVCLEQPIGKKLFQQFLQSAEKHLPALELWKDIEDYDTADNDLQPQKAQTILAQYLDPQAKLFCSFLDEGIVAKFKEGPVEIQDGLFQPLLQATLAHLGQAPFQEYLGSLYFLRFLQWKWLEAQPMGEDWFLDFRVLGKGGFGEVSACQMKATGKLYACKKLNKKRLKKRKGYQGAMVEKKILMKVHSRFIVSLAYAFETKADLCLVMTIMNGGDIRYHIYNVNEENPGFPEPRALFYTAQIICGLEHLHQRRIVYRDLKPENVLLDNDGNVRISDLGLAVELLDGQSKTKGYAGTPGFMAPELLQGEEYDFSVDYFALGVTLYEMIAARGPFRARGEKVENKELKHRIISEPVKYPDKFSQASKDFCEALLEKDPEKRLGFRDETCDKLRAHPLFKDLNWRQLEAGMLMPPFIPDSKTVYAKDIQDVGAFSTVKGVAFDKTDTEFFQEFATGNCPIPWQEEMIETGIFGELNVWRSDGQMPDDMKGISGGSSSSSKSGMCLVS", "description": "as §1"}, "PYK2": {"target": "T30, PYK2 (Homo sapiens, UniProt Q14289)", "T30 construct": "purchased Reaction Biology Corporation (Kinase HotSpot)", "description": "as §1"}}, "data": [{"molecule": "Cc1cnc(N[C@H]2CC[C@H](N)CC2)nc1-c1cnc2ccc(-c3ccccc3)cn12", "note": "[CDDD11-8]", "values": [{"measurement": "remaining activity at 1 µM", "setting": "RAF1", "result": 98.1, "unit": "%"}, {"measurement": "remaining activity at 1 µM", "setting": "CK1a1L", "result": 90, "unit": "%"}, {"measurement": "remaining activity at 1 µM", "setting": "PKCtheta", "result": 46.2, "unit": "%"}, {"measurement": "remaining activity at 1 µM", "setting": "PKD2/PRKD2", "result": 62.7, "unit": "%"}, {"measurement": "remaining activity at 1 µM", "setting": "NEK9", "result": 84.7, "unit": "%"}, {"measurement": "remaining activity at 1 µM", "setting": "EPHA5", "result": 83.8, "unit": "%"}, {"measurement": "remaining activity at 1 µM", "setting": "TXK", "result": 60.4, "unit": "%"}, {"measurement": "remaining activity at 1 µM", "setting": "TGFBR2", "result": 95.6, "unit": "%"}, {"measurement": "remaining activity at 1 µM", "setting": "CDK9/cyclin K", "result": 6.4, "unit": "%"}, {"measurement": "remaining activity at 1 µM", "setting": "HCK", "result": 62.7, "unit": "%"}, {"measurement": "remaining activity at 1 µM", "setting": "FGFR4", "result": 104, "unit": "%"}, {"measurement": "remaining activity at 1 µM", "setting": "FES/FPS", "result": 86.2, "unit": "%"}, {"measurement": "remaining activity at 1 µM", "setting": "MSSK1/STK23", "result": 90.8, "unit": "%"}, {"measurement": "remaining activity at 1 µM", "setting": "MYLK3", "result": 99.7, "unit": "%"}, {"measurement": "remaining activity at 1 µM", "setting": "TYK1/LTK", "result": 90.8, "unit": "%"}, {"measurement": "remaining activity at 1 µM", "setting": "HIPK3", "result": 125, "unit": "%"}, {"measurement": "remaining activity at 1 µM", "setting": "IRAK1", "result": 91.9, "unit": "%"}, {"measurement": "remaining activity at 1 µM", "setting": "STK33", "result": 70.3, "unit": "%"}, {"measurement": "remaining activity at 1 µM", "setting": "WEE1", "result": 94.3, "unit": "%"}, {"measurement": "remaining activity at 1 µM", "setting": "MLCK2/MYLK2", "result": 25.9, "unit": "%"}, {"measurement": "remaining activity at 1 µM", "setting": "TNIK", "result": 4.38, "unit": "%"}, {"measurement": "remaining activity at 1 µM", "setting": "P38b/MAPK11", "result": 98.4, "unit": "%"}, {"measurement": "remaining activity at 1 µM", "setting": "MNK1", "result": 76.4, "unit": "%"}, {"measurement": "remaining activity at 1 µM", "setting": "IKKe/IKBKE", "result": 91.7, "unit": "%"}, {"measurement": "remaining activity at 1 µM", "setting": "EPHA4", "result": 101, "unit": "%"}, {"measurement": "remaining activity at 1 µM", "setting": "YES/YES1", "result": 70, "unit": "%"}, {"measurement": "remaining activity at 1 µM", "setting": "PHKg2", "result": 93.9, "unit": "%"}, {"measurement": "remaining activity at 1 µM", "setting": "CLK2", "result": 47, "unit": "%"}, {"measurement": "remaining activity at 1 µM", "setting": "GRK1", "result": 65, "unit": "%"}, {"measurement": "remaining activity at 1 µM", "setting": "PYK2", "result": 84.2, "unit": "%"}]}]}
